Some results are limits rather than exact numbers.

The test system of the assay is GTPase KRas (Homo sapiens), P01116 [G12C]. The assay is described as follows: Binding affinity to His-tagged KRAS (1 to 169 residues) G12C mutant (unknown origin) at 10 to 100 uM after 24 hrs by mass spectrometric method.
In turn, `C=CC(=O)NC[C@H]1C[C@@H]2O[C@H](CO)[C@@H](OCc3ccccc3)[C@@H]2O1` yielded an Activity of 0.5 to 5%.
For `C=Cc1ccc(S(=O)(=O)NC[C@H]2C[C@@H]3O[C@H](COCc4ccccc4)[C@@H](OCc4ccccc4)[C@@H]3O2)cc1` the value was more than 15%.
`C=CS(=O)(=O)NCCNc1cccc2ccccc12` showed an Activity of 10 to 15%.
For `C=Cc1ccc(S(=O)(=O)NC[C@H]2C[C@@H]3O[C@H](CO)[C@@H](OCc4ccccc4)[C@@H]3O2)cc1` the value was 10 to 15%; for `C=Cc1ccccc1S(=O)(=O)NC[C@H]1C[C@@H]2O[C@H](COCc3ccccc3)[C@@H](OCc3ccccc3)[C@@H]2O1`, 10 to 15%; for `C=CS(=O)(=O)NCCOc1cccc2ccccc12`, 10 to 15%.
For `C=CS(=O)(=O)NC[C@H]1C[C@@H]2O[C@H](COCc3ccccc3)[C@@H](OCc3ccccc3)[C@@H]2O1` the value was 10 to 15%.
In the case of `C=Cc1cccc(S(=O)(=O)NCCOc2cccc3ccccc23)c1` it was 5 to 10%; in that of `C=Cc1cccc(S(=O)(=O)NC[C@@H]2C[C@@H]3O[C@H](COCc4ccccc4)[C@@H](OCc4ccccc4)[C@@H]3O2)c1`, more than 15%; in that of `C=Cc1ccc(S(=O)(=O)NC[C@@H]2C[C@@H]3O[C@H](COCc4ccccc4)[C@@H](OCc4ccccc4)[C@@H]3O2)cc1`, 10 to 15%.
`C=Cc1ccccc1S(=O)(=O)NCCOc1ccc2ccccc2c1` displayed an Activity of 5 to 10%.
`C=CS(=O)(=O)NC[C@@H]1C[C@@H]2O[C@H](COCc3ccccc3)[C@@H](OCc3ccccc3)[C@@H]2O1`: the Activity is 10 to 15%.
Take `C=Cc1ccc(S(=O)(=O)NCCNc2ccc3ccccc3c2)cc1`: the Activity lay within 5 to 10%.
In the case of `C=CC(=O)NC[C@@H]1C[C@@H]2O[C@H](CO)[C@@H](OCc3ccccc3)[C@@H]2O1` it was 0.5 to 5%; in that of `C=Cc1ccccc1S(=O)(=O)NC[C@@H]1C[C@@H]2O[C@H](COCc3ccccc3)[C@@H](OCc3ccccc3)[C@@H]2O1`, 10 to 15%; in that of `C=Cc1cccc(S(=O)(=O)NC[C@H]2C[C@@H]3O[C@H](CO)[C@@H](OCc4ccccc4)[C@@H]3O2)c1`, 5 to 10%.
For `C=Cc1ccccc1S(=O)(=O)NC[C@@H]1C[C@@H]2O[C@H](CO)[C@@H](OCc3ccccc3)[C@@H]2O1` the value was more than 15%; for `C=CC(=O)NC[C@H]1C[C@@H]2O[C@H](COCc3ccccc3)[C@@H](OCc3ccccc3)[C@@H]2O1`, 0.5 to 5%.
For `C=CS(=O)(=O)NC[C@H]1C[C@@H]2O[C@H](CO)[C@@H](OCc3ccccc3)[C@@H]2O1` the value was 5 to 10%.
In turn, `C=Cc1cccc(S(=O)(=O)NC[C@H]2C[C@@H]3O[C@H](COCc4ccccc4)[C@@H](OCc4ccccc4)[C@@H]3O2)c1` registered an Activity of 5 to 10%.
Take `C=Cc1cccc(S(=O)(=O)NCCOc2ccc3ccccc3c2)c1`: the Activity fell in the range of 10 to 15%.
For `C=CS(=O)(=O)NCCNc1ccc2ccccc2c1` the value was 5 to 10%; for `C=Cc1ccc(S(=O)(=O)NCCNc2cccc3ccccc23)cc1`, 10 to 15%; for `C=Cc1ccccc1S(=O)(=O)NCCOc1cccc2ccccc12`, 10 to 15%.
`C=CS(=O)(=O)NCCOc1ccc2ccccc2c1`: the Activity is 10 to 15%.
In the case of `C=CC(=O)NC[C@@H]1C[C@@H]2O[C@H](COCc3ccccc3)[C@@H](OCc3ccccc3)[C@@H]2O1` it was 0.5 to 5%; in that of `C=Cc1ccccc1S(=O)(=O)NCCNc1cccc2ccccc12`, more than 15%; in that of `C=Cc1ccc(S(=O)(=O)NCCOc2ccc3ccccc3c2)cc1`, 10 to 15%.
In the case of `C=Cc1ccccc1S(=O)(=O)NC[C@H]1C[C@@H]2O[C@H](CO)[C@@H](OCc3ccccc3)[C@@H]2O1` it was 10 to 15%; in that of `C=Cc1ccccc1S(=O)(=O)NCCNc1ccc2ccccc2c1`, 10 to 15%.
For `C=Cc1ccc(S(=O)(=O)NC[C@@H]2C[C@@H]3O[C@H](CO)[C@@H](OCc4ccccc4)[C@@H]3O2)cc1` the value was 5 to 10%.
As to `C=Cc1cccc(S(=O)(=O)NC[C@@H]2C[C@@H]3O[C@H](CO)[C@@H](OCc4ccccc4)[C@@H]3O2)c1`, the Activity is 10 to 15%.

(Values after ChEMBL document CHEMBL3880441, “Irreversible covalent inhibitors of the GTPASE K-RAS G12C” (2014).)
